Source: patent publication US20020132853A1, “Capsaicin receptor ligands” (priority 2000, published 2002)

System: not listed separately
Assay: Sedative effect noted in CFA arthritis model protocol
Assay type: in vivo, rats
Conditions: oral dose of 5mg/kg
Experimental: Male SD rats are injected with […] of CFA (0.1 mg heat killed and dried M. tuberculosis/ml) in the hind paw ([…] on the plantar surface of the paw) essentially as described by Bertorelli R, Corradini L, Rafiq K, Tupper J, Calo G, Ongini E., Br J Pharmacol. 1999 128(6):1252-8 and by Stein C, Millan M J, Herz A. Pharmacol Biochem Behav. 1988 31(2):455-51.
On day 7, animals are treated orally with a compound of the invention, morphine or vehicle (2% vitamin E-TPGS) 1 hour prior to testing.

**Q.** For `CN1CC[C@]23c4c5ccc(O)c4O[C@H]2[C@@H](O)C=C[C@H]3[C@H]1C5` [morphine], which sedative effects is on record?
**A.** Its sedative effects is “has sedative effects”.

Molecular target: T1, human capsaicin receptor (Homo sapiens, UniProt Q8NER1)
T1 construct: expression consrtuct encoding the full length human capsaicin receptor; expressed in transfected cells
T1 sequence (Q8NER1 whole entry): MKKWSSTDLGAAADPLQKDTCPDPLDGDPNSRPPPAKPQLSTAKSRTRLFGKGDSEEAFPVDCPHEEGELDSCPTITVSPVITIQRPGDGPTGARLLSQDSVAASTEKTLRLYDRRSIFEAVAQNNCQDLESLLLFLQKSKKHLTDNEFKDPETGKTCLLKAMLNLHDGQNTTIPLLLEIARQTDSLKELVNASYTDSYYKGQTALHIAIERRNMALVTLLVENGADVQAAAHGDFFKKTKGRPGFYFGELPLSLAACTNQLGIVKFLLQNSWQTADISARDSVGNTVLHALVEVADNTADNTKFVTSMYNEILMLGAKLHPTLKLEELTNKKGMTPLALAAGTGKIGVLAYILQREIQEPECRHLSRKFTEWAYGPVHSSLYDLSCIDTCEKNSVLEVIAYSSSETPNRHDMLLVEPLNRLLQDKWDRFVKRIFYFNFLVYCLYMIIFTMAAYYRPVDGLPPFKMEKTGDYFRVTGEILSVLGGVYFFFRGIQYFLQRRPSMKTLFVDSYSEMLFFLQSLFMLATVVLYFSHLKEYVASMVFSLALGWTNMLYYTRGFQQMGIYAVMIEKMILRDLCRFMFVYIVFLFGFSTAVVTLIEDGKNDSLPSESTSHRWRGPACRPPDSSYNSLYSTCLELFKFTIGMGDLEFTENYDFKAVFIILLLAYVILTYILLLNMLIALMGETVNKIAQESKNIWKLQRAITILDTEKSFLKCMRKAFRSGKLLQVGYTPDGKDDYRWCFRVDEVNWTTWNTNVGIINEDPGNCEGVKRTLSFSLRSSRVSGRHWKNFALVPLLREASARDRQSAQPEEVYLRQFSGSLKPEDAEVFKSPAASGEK
Assay: Antagonist assay for Capsaicin receptor mediated calcium mobilization
Assay type: cell-based
Conditions: Table VI, read-out: EC50 (the source's name)
Method in brief: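 Cells expressing human capsaicin receptor, loaded with Fluo-3 AM, were preincubated 0.5–6 h at room temperature in the dark with test compound at 1–5 μM final in KRH buffer (pH 7.4, 2 mM CaCl2, probenecid). Capsaicin at its EC50 was then added via FLIPR; IC50 is the antagonist concentration halving the calcium signal.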

**Q.** Which IC50 does the source give for `C[C@@H]1CN(c2nccnc2Cl)CCN1C(=O)Nc1ccc(C2CCCC2)cc1` [Compound 165, (2R)-4-(3-chloropyrazin-2-yl)-2-methyl-N-{4-cyclopentyl-phenyl}piperazine-1-carboxamide] here?
**A.** Its IC50 is under 1000 nM.

**Q.** Which IC50 does the source give for `C[C@@H]1CN(c2nccnc2Cl)CCN1C(=O)Nc1ccc(C2CCCCC2)cc1` [Compound 166, (2R)-4-(3-chloropyrazin-2-yl)-2-methyl-N-{4-cyclohexyl-phenyl}piperazine-1-carboxamide] here?
**A.** Its IC50 is under 1000 nM.

**Q.** For `CCCCc1ccc(NC(=S)N2CCN(c3ncccc3Cl)C[C@H]2C)cc1` [Compound 167], which IC50 is on record?
**A.** The IC50 was under 1000 nM.

**Q.** With `C[C@@H]1CN(c2ncccc2Cl)CCN1C(=S)Nc1ccc(C(C)(C)C)cc1` [Compound 168] as the compound, how does the IC50 read?
**A.** Its IC50 is under 1000 nM.

**Q.** With `CC(C)c1ccc(NC(=S)N2CCN(c3ncccc3Cl)C[C@H]2C)cc1` [Compound 169] as the compound, how does the IC50 read?
**A.** The IC50 was under 1000 nM.

**Q.** For `CC(C)c1ccc(NC(=S)N2CCN(c3ncccc3Cl)C[C@@H]2C)cc1` [Compound 170], which IC50 is on record?
**A.** Its IC50 is under 1000 nM.

**Q.** For `C[C@H]1CN(c2ncccc2Cl)CCN1C(=S)Nc1ccc(C(C)(C)C)cc1` [Compound 171], which IC50 is on record?
**A.** The IC50 was under 1000 nM.

**Q.** For `C[C@@H]1CN(c2ncccc2Cl)CCN1C(=S)Nc1ccc(C(F)(F)F)cc1` [Compound 172], which IC50 is on record?
**A.** The IC50 was under 1000 nM.

**Q.** Which IC50 does the source give for `C[C@@H]1CN(c2ncccc2Cl)CCN1C(=O)Oc1ccc(C(C)(C)C)cc1` [Compound 173] here?
**A.** The IC50 was under 1000 nM.

System: not given
Assay: not given
Conditions: not given

**Q.** Which melting point does the source give for `CC(C)c1ccc(NC(=S)N2CCN(c3ncccc3Cl)C[C@H]2C)cc1` (stereo in doubt) [Example 7, 4-(3-Chloro-pyridin-2-yl)-2-methyl-piperazine-1-carbothioic acid (4-isopropyl-phenyl)-amide] here?
**A.** Its melting point is 49 to 51 °C.

Molecular target: T1, human capsaicin receptor
Assay: Capsaicin receptor binding assay ([3H]RTX competition)
Conditions: not given
Source text: Capsaicin Receptor Binding Assay
The following assay is a standard assay of capsaicin receptor binding that may be used to determine the binding affinity of compounds for the capsaicin (VR1) receptor.
Materials. [^3H]Resiniferatoxin (RTX; 37 Ci/mmol) was synthesized by and obtained from the Chemical Synthesis and Analysis Laboratory, National Cancer Institute-Frederick Cancer Research and Development Center, Frederick, MD. [^3H] […] Nonradioactive RTX may be purchased from Alexis Corp. (San Diego, Calif.) and capsazepine from RBI (Natick, Mass).
Cell Culture. […] These transfected cells are selected for two weeks in media containing G418 (400 ug/ml) and then maintained as a pool of stably transfected cells.
pUHG102 VR1 expression plasmids are transfected into Chinese Hamster Ovary (CHO) cells containing the pTet Off Regulator plasmid (Clontech). In these cells, expression of the pUHG plasmid is repressed in the presence of tetracycline but is induced upon removal of the antibiotic. Stable clones are isolated in culture medium containing puromycin (10 ug/ml) and maintained in medium supplemented with tetracycline (1 ug/ml) Cells utilized for assays are grown in culture medium without antibiotic for 48-72 hours prior to use. For radioligand binding experiments, cells are seeded in T175 cell culture flasks in media without antibiotics and grown to approximately 90% confluency. The flasks are then washed with PBS and harvested in PBS containing 5 mM EDTA. The cells are pelleted by gentle centrifugation and stored at −80° C. until assayed.
Previously frozen cells are disrupted with the aid of a tissue homogenizer in ice-cold HEPES homogenization buffer (5mM KCl 5, 5.8mM NaCl, 0.75mM CaCl2, 2mM MgCl2, 320 mM sucrose, and 10 mM HEPES pH 7.4). Tissue homogenates are first centrifuged for 10 min at 1000×g (4° C.) to remove the nuclear fraction and debris and then the supernatant from the first centrifugation is further centrifuged for 30 min at 35,000×g (4° C.) to obtain a partially purified membrane fraction. Membranes are resuspended in the HEPES homogenization buffer prior to being assayed. An aliquot of this membrane homogenate is used to determine protein concentration via the Bradford method (BIO-RAD Protein Assay Ki t, #500-0001, BIO-RAD, Hercules, Calif.).
Binding assay mixtures were set up on ice and contained [^3H]RTX (specific activity 2200 mCi/ml), 2 ul non-radioactive ligands test compound, 0.25 mg/ml bovine serum albumin (Cohn fraction V), and 5×10^4−1×10^5 VR1-transfected cells. The final volume was adjusted to 500 ul (competition binding assays) or 1,000 ul (saturation binding assays) with the ice-cold HEPES homogenization buffer solution (pH 7.4) described above. Non-specific binding was defined as that occurring in the presence of 1 uM non-radioactive RTX. For saturation binding, [^3H]RTX was added in the concentration range of 7 - 1,000 pM, using 1 to 2 dilutions. Typically 11 concentration points are collected per saturation binding curve.
Competition binding assays were performed in the presence of 60 pM [^3H]RTX and various concentrations of competing ligands. The binding reactions are initiated by transferring the assay mixtures into a 37° C. water bath and are terminated following a 60 min incubation period by cooling the tubes on ice. Membrane-bound RTX is separated from free, as well as any alpha1-acid glycoprotein-bound RTX, by filtration onto WALLAC glass fiber filters (PERKIN-ELMER, Gaithersburg, Md.) which are pre-soaked with 1.0% PEI (polyethyleneimine) for 2 hours prior to use.

**Q.** Which Ki does the source give for `CC(C)c1ccc(NC(=O)N2CCN(c3ncccc3C#N)CC2)cc1` [Compound 12, 4-(3-Cyano-2-pyridinyl)-N-[4-(isopropyl)phenyl]-1-piperazinecarboxamide] here?
**A.** Its Ki is under 4000 nM.

Same assay, conditions: Table II; read-out: Activity

**Q.** With “4-(3-Chloro-2-pyridinyl)-N-[4-(isopropyl)phenyl]-1-piperazinecarboxamide [Compound 14]” as the compound, how does the Ki read?
**A.** The Ki was under 4000 nM.

**Q.** Which Ki does the source give for `CCCCc1ccc(NC(=O)N2CCN(c3ncccc3[N+](=O)[O-])CC2)cc1` [Compound 2, 4-(3-Nitro-2-pyridinyl)-N-[4-(n-butyl)phenyl]-1-piperazinecarboxamide] here?
**A.** Its Ki is under 4000 nM.

**Q.** For `CCCCc1ccc(NC(=O)N2CCN(c3ncccc3C(F)(F)F)CC2)cc1` [Compound 3, 4-(3-Trifluoromethyl-2-pyridinyl)-N-[4-(n-butyl)phenyl]-1-piperazinecarboxamide], which Ki is on record?
**A.** The Ki was under 4000 nM.

**Q.** With `Cc1cccnc1N1CCN(C(=O)Nc2ccc(C(C)C)cc2)CC1` [Compound 4, 4-(3-Methyl-2-pyridinyl)-N-[4-(isopropyl)phenyl]-1-Piperazinecarboxamide] as the compound, how does the Ki read?
**A.** The Ki was under 4000 nM.

**Q.** With `CC(C)c1ccc(NC(=O)N2CCN(c3ncc(C(F)(F)F)cc3Cl)CC2)cc1` [Compound 7, 4-(3-Chloro-5-trifluoromethyl-2-pyridinyl)-N-[4-(isopropyl)phenyl]-1-piperazinecarboxamide] as the compound, how does the Ki read?
**A.** The Ki was under 4000 nM.

**Q.** Which Ki does the source give for `CC(C)c1ccc(NC(=O)N2CCN(c3ncccc3Cl)CC2)cc1` [Compound 8, 4-(3-Chloro-2-pyridinyl)-N-[4-(isopropyl)phenyl]-1-piperazinecarboxamide] here?
**A.** The Ki was under 4000 nM.

**Q.** Which Ki does the source give for `CC(C)c1ccc(NC(=O)N2CCN(c3ncc(Cl)cc3Cl)CC2)cc1` [Compound 9, 4-(3,5-Dichloro-2-pyridinyl)-N-[4-(isopropyl)phenyl]-1-piperazinecarboxamide] here?
**A.** The Ki was under 4000 nM.

**Q.** With `Cc1cccnc1C(=O)C=Cc1ccc(C(F)(F)F)cc1` [Compound 10, 1-(3-Methyl-2-pyridinyl)-3-(4-trifluoromethylphenyl)-prop-2-en-1-one] as the compound, how does the Ki read?
**A.** The Ki was under 4000 nM.

**Q.** Which Ki does the source give for `CC(C)c1ccc(C=CC(=O)c2ncccc2C(F)(F)F)cc1` [Compound 11, 1-(3-Trifluoromethyl-2-pyridinyl)-3-(4-isopropylphenyl)-prop-2-en-1-one] here?
**A.** Its Ki is under 4000 nM.

Same assay, conditions: read-out: Capsaicin rececptor Ki

**Q.** Which Ki does the source give for `COc1cc(CNC(=O)N2CCN(c3ncccc3C(F)(F)F)CC2)ccc1O` [Compound 1, 4-(3-Trifluoromethyl-2-pyridinyl)-N-(3-methoxy-4-hydroxyphenylmethyl)-1-piperazinecarboxamide] here?
**A.** Its Ki is 366 nM.
